# Earlier results as cited in patent US20220370332A1, “PRODUCT FOR DYEING KERATINOUS MATERIAL, CONTAINING AMINOSILICONE, A CHROMOPHORIC COMPOUND, PRESERVATIVE AND ETHOXYLATED FATTY ALCOHOL” (Henkel AG & Co. KGaA, priority 2019, published 2022).
# Conditions: 25° C.
row,solubility in water,Structure (SMILES)
1,more than 20 % by weight,CCN(Cc1cccc(S(=O)(=O)[O-])c1)c1ccc(C(=C2C=CC(=[N+](CC)Cc3cccc(S(=O)(=O)[O-])c3)C=C2)c2ccccc2S(=O)(=O)[O-])cc1.[Na+].[Na+] [Acid Blue 9]
2,2500 µg/mL,"Nc1cc(S(=O)(=O)[O-])cc2cc(S(=O)(=O)[O-])c(N=Nc3ccccc3)c(O)c12.[Na+].[Na+] [Acid Red 33, diantrium salt of 5-amino-4-hydroxy-3-(phenylazo)-naphthalene-2,7-disulphonate]"
3,highly soluble in water,"O=C([O-])C1=NN(c2ccc(S(=O)(=O)[O-])cc2)C(=O)C1N=Nc1ccc(S(=O)(=O)[O-])cc1.[Na+].[Na+].[Na+] (centres unmarked) [Acid Yellow 23, trisodium salt of 4,5-dihydro-5-oxo-1-(4-sulfophenyl)-4-((4-sulfophenyl)azo)-1H-pyrazole-3-carboxylic acid]"

row,Structure (SMILES),solubility in water
1,"O=S(=O)([O-])c1ccc(N=Nc2c(O)ccc3ccccc23)cc1.[Na+] [Acid Orange 7, sodium salt of 4-[(2-hydroxy-1-naphthyl)azo]benzene sulphonate]",more than 7 g/L
2,"O=C([O-])c1c(Cl)c(Cl)c(Cl)c(Cl)c1-c1c2c(Br)cc(=O)c(Br)c-2oc2c(Br)c(O)cc(Br)c12.O=C([O-])c1c(Cl)c(Cl)c(Cl)c(Cl)c1-c1c2c(Br)cc(=O)c(Br)c-2oc2c(Br)c(O)cc(Br)c12.[Na+].[Na+] [Acid Red 92, disodium salt of 3,4,5,6-tetrachloro-2-(1,4,5,8-tetrabromo-6-hydroxy-3-oxoxanthen-9-yl)benzoic acid]",greater than 10 g/L
